{
  "source": "patent US20030212147A1",
  "about": "“Enzyme activated chemotherapy of liver cancer” (priority 2003, published 2003)",
  "key": {"HepG2 cells": {"test_system": "HepG2 cells", "test": "LDH-release cytotoxicity assay in HepG2 cells cultured in isotonic or hypertonic (AR-inducing) medium", "format": "cell-based, human", "settings": "for effect on HepG2 cells (LDH release): 50 μM ND; for toxic effect (LDH released into the medium): 5 hours", "experimental": "HepG2 cells, a human liver cell line, were purchased from the American Type Culture Collection (Rockville, Md.). The basic (isotonic) medium was MEM medium supplemented with 10% fetal bovine serum, 100 U/ml penicillin, 100 μg/ml streptomycin, 0.1 mM MEM non-essential amino acids, and 1 mM sodium pyruvate. Medium was made hypertonic by adding NaCl to 100 mM, and the osmolarity was about 500 mosmol/kg as determined by osmometer. ND was dissolved in 20% ethanol to make a 50 mM stock solution. NQ was dissolved in 100% ethanol to make a 50 mM stock solution. AL1576 was dissolved in 20 mM NaOH to make a 20 mM stock solution.\nCells were first cultured in isotonic medium until 70% confluent. The medium was then made hypertonic by NaCl and incubated for 72 hours. The cells were then seeded onto 24-well plate at 8×10^4 cells/well and incubated for 24 hours in hypertonic medium. Cells for isotonic control were processed in parallel except that no NaCl was added. ND and AR inhibitor AL1576 were added as indicated.\nCytotoxicity was measured by the percent of LDH (lactate dehydrogenase) released into the medium. LDH activity was determined by Cytotoxicity Detection Kit. The optical density of the colored product was measured at 492 and 690 nm by SpectraMax 340 Microplate reader (Molecular Devices). LDH released into the medium was measured by taking samples of the medium. Total LDH was determined by taking samples of cell extracts lysed by Triton X-100 at a final concentration of 1%."}, "[1]": {"format": "physicochemical", "source_text": "Naphthalene is insoluble in water. […] Accordingly, ND, the metabolized product of naphthalene (see FIG. 1), rather than naphthalene, was used to test the cytotoxic activity of the drug that is activated AR overproduced by HepG2 cells."}, "[2]": {"settings": "rabbit cataract model; taken as the likely toxic level for oral administration; cited from earlier work"}},
  "note": "“Also recorded” adds a separate entry of the source.",
  "data": [
    {"smiles": "O=C1NC(=O)C2(N1)c1cc(F)ccc1-c1ccc(F)cc12", "note": "[AL1576, 2,7-difluorospirofluorene-9,5′-imidazolidine-2′4′-dione, reference compound]", "values": [
      {"measurement": "protection of HepG2 cells against the toxic effects of ND by the AR inhibitor", "setting": "HepG2 cells; HepG2 cells in hypertonic medium with ND", "value": "can protect these cells against the toxic effects of ND"}
    ]},
    {"smiles": "OC1C=Cc2ccccc2C1O", "note": "(stereo not shown) [ND, naphthalene-1,2-dihydrodiol]", "values": [
      {"measurement": "effect on HepG2 cells (LDH release)", "setting": "HepG2 cells; hypertonic medium", "value": "no effect"},
      {"measurement": "effect on HepG2 cells (LDH release)", "setting": "HepG2 cells; isotonic medium", "value": "no effect"},
      {"measurement": "toxic effect (LDH released into the medium)", "setting": "HepG2 cells; 500 μM ND, HepG2 cells in hypertonic medium (AR overexpressed)", "value": "highly toxic"},
      {"measurement": "toxic effect (LDH released into the medium)", "setting": "HepG2 cells; 500 μM ND, HepG2 cells in isotonic medium", "value": "no sign of toxic effects; also recorded: no toxic effect"},
      {"measurement": "LDH released relative to that released by control cells (isotonic medium)", "setting": "HepG2 cells; 500 μM ND, hypertonic versus isotonic medium", "value": "more than 10 times"},
      {"measurement": "sensitivity of HepG2 cells to ND in hypertonic versus isotonic medium", "setting": "HepG2 cells; hypertonic versus isotonic medium", "value": 10, "unit": "times"}
    ]},
    {"smiles": "c1ccc2ccccc2c1", "note": "[Naphthalene]", "values": [
      {"measurement": "behaviour when added to the medium", "setting": "[1]", "value": "quickly precipitates"},
      {"measurement": "solubility in water", "setting": "[1]", "value": "insoluble"},
      {"measurement": "dose at which cataract and degeneration of the retina develop", "setting": "[2]", "value": "about 1 g/kg body weight"}
    ]}
  ]
}
